Measured values: patent publication US12344603B2 (Genentech, Inc., priority 2020, dated 2025)
Counter-ions that a name gives are not always drawn.

The compounds below were run against IRE1α (Homo sapiens (Human), UniProt O75460, D688N) (assay: IRE1α TR-FRET competition binding assay (IRE1α HTRF)). Details: TR-FRET competition binding to kinase domain of IRE1α.
In short: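 Competition of compounds against an Alexa fluor 647 ATP-site probe (2 nM final) for the His-tagged kinase domain (0.25 nM final), detected via 2 nM Eu anti-His antibody by TR-FRET, 665 and 615 nm emission. Protein–antibody premix 1 h, 4° C; reaction 1 h, room temperature, pH 7.5 HEPES buffer.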

Chain of IRE1α (O75460 547-977 D688N): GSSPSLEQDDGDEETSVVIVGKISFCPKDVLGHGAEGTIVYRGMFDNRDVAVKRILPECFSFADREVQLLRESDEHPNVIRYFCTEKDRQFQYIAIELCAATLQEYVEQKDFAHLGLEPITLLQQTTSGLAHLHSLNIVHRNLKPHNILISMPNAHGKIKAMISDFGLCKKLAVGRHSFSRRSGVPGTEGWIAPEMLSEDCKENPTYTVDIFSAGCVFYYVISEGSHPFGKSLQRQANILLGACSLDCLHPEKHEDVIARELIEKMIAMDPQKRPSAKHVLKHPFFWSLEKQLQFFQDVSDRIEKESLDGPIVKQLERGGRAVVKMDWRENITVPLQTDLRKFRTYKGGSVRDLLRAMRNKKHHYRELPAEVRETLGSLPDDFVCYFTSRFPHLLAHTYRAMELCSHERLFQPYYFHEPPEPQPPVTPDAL

Row | Compound | IC50
1 | CC(C)n1c(=O)c(-c2cc(F)c(NS(=O)(=O)Cc3ccccc3F)c(F)c2F)cc2cnc(N[C@@H]3CNC[C@@H](F)C3)nc21 [Compound 86, 1-(2-Fluorophenyl)-N-(2,3,6-trifluoro-4-(2-(((3S,5S)-5-fluoropiperidin-3-yl)amino)-8-isopropyl-7-oxo-7,8-dihydropyrido[2,3-d]pyrimidin-6-yl)phenyl)methanesulfonamide] | 0.16 nM
2 | CC(C)n1c(=O)c(-c2ccc(NS(=O)(=O)CCC(F)(F)F)c(F)c2)nc2cnc(N[C@@H]3CC[C@@H](N(C)C)[C@H](F)C3)nc21 (stereo in doubt) [Compound 179B, N-(4-(2-((4-(Dimethylamino)-3-fluorocyclohexyl)amino)-8-isopropyl-7-oxo-7,8-dihydropteridin-6-yl)-2-fluorophenyl)-3,3,3-trifluoropropane-1-sulfonamide] | 0.15 nM
3 | COCCN(C)C1CCC(Nc2ncc3cc(-c4cc(F)c(NS(=O)(=O)Cc5ccccc5)c(F)c4F)c(=O)n(C(C)C)c3n2)CC1 (single isomer, unassigned) [Compound 102B, 1-Phenyl-N-(2,3,6-trifluoro-4-(8-isopropyl-2-((4-((2-methoxyethyl)(methyl)amino)cyclohexyl)amino)-7-oxo-7,8-dihydropyrido[2,3-d]pyrimidin-6-yl)phenyl)methanesulfonamide] | 66 nM
4 | CC(C)n1c(=O)c(-c2cc(F)c(NS(=O)(=O)Cc3ccccc3)c(F)c2F)nc2cnc(N[C@@H]3CNC[C@@H](F)C3)nc21 [Compound 185, 1-Phenyl-N-(2,3,6-trifluoro-4-(2-(((3S,5S)-5-fluoropiperidin-3-yl)amino)-8-isopropyl-7-oxo-7,8-dihydropteridin-6-yl)phenyl)methanesulfonamide] | 0.17 nM
5 | CC(C)n1c(=O)c(-c2ccc(NS(=O)(=O)CC3CCC3(F)F)c(F)c2)nc2cnc(N[C@H]3CC[C@H](N(C)C)CC3)nc21 (mixture of isomers) [Example 263, 1-(2,2-Difluorocyclobutyl)-N-[4-[2-[[4-(dimethylamino)cyclohexyl]amino]-8-isopropyl-7-oxo-pteridin-6-yl]-2-fluoro-phenyl]methanesulfonamide] | 0.1 nM
6 | CC(C)n1c(=O)c(-c2ccc(NS(=O)(=O)CCC(C)(F)F)c(F)c2)nc2cnc(N[C@H]3CC[C@H](N(C)C)CC3)nc21 [Compound 66, N-(4-(2-(((1r,4r)-4-(Dimethylamino)cyclohexyl)amino)-8-isopropyl-7-oxo-7,8-dihydropteridin-6-yl)-2-fluorophenyl)-3,3-difluorobutane-1-sulfonamide] | 0.29 nM
7 | CC(C)n1c(=O)c(-c2cc(F)c(NS(=O)(=O)Cc3ccccc3)c(F)c2)nc2cnc(N[C@@H]3CNC[C@@H](F)C3)nc21 [Compound 45, N-(2,6-Difluoro-4-(2-(((3S,5S)-5-fluoropiperidin-3-yl)amino)-8-isopropyl-7-oxo-7,8-dihydropteridin-6-yl)phenyl)-1-phenylmethanesulfonamide] | 0.22 nM
8 | Cn1c(=O)c(-c2cccc3c(NS(=O)(=O)Cc4ccccc4)c(F)ccc23)cc2cnc(N[C@H]3CCCNC3)nc21 [Compound 5, (S)—N-(2-Fluoro-5-(8-methyl-7-oxo-2-(piperidin-3-ylamino)-7,8-dihydropyrido[2,3-d]pyrimidin-6-yl)naphthalen-1-yl)-1-phenylmethanesulfonamide] | 0.28 nM
9 | CC(C)n1c(=O)c(-c2ccc(NS(=O)(=O)CCC(F)(F)F)c(F)c2)cc2cnc(N[C@H]3CC[C@H](N(C)C4COC4)CC3)nc21 [Compound 206, 3,3,3-Trifluoro-N-(2-fluoro-4-(8-isopropyl-2-(((1,4-trans)-4-(methyl(oxetan-3-yl)amino)cyclohexyl)amino)-7-oxo-7,8-dihydropyrido[2,3-d]pyrimidin-6-yl)phenyl)propane-1-sulfonamide] | 0.17 nM
10 | CC(C)n1c(=O)c(-c2ccc(NS(=O)(=O)Cc3ccccc3)c(F)c2)nc2cnc(N[C@@H]3CC[C@@H](N(C)C)[C@H](F)C3)nc21 (stereo in doubt) [Compound 192B, N-(4-(2-((4-(Dimethylamino)-3-fluorocyclohexyl)amino)-8-isopropyl-7-oxo-7,8-dihydropteridin-6-yl)-2-fluorophenyl)-1-phenylmethanesulfonamide] | 0.09 nM
11 | CC(C)n1c(=O)c(-c2cc(F)c(NS(=O)(=O)Cc3ccc(Cl)cc3)c(F)c2)cc2cnc(N[C@H]3CC[C@H](N(C)C)CC3)nc21 [Compound 116, 1-(4-Chlorophenyl)-N-(4-(2-(((1r,4r)-4-(dimethylamino)cyclohexyl)amino)-8-isopropyl-7-oxo-7,8-dihydropyrido[2,3-d]pyrimidin-6-yl)-2,6-difluorophenyl)methanesulfonamide] | 0.25 nM
12 | CC(C)n1c(=O)c(-c2ccc(NS(=O)(=O)CCC(F)(F)F)c(F)c2)nc2cnc(N[C@H]3CC[C@H](N(C)CCF)CC3)nc21 [Compound 177, 3,3,3-Trifluoro-N-(2-fluoro-4-(2-(((1r,4r)-4-((2-fluoroethyl)(methyl)amino)cyclohexyl)amino)-8-isopropyl-7-oxo-7,8-dihydropteridin-6-yl)phenyl)propane-1-sulfonamide] | 0.24 nM
13 | CC(C)n1c(=O)c(-c2ccc(NS(=O)(=O)Cc3ccc(F)cc3)c(F)c2)nc2cnc(N[C@@H]3CC[C@@H](N(C)C)[C@H](F)C3)nc21 (stereo in doubt) [Compound 181A, N-(4-(2-((4-(Dimethylamino)-3-fluorocyclohexyl)amino)-8-isopropyl-7-oxo-7,8-dihydropteridin-6-yl)-2-fluorophenyl)-1-(4-fluorophenyl)methanesulfonamide] | 0.16 nM
14 | N-(2,3,6-trifluoro-4-(8-isopropyl-2-((4-((2-methoxyethyl)(methyl)amino)cyclohexyl)amino)-7-oxo-7,8-dihydropyrido[2,3-d]pyrimidin-6-yl)phenyl)propane-1-sulfonamide [Compound 101A] | 0.35 nM
15 | CC(C)n1c(=O)c(-c2ccc(NS(=O)(=O)CCC(F)(F)F)c(F)c2)cc2cnc(N[C@H]3CC[C@H](N4CCOCC4)CC3)nc21 [Compound 213, 3,3,3-Trifluoro-N-(2-fluoro-4-(8-isopropyl-2-(((1,4-trans)-4-morpholinocyclohexyl)amino)-7-oxo-7,8-dihydropyrido[2,3-d]pyrimidin-6-yl)phenyl)propane-1-sulfonamide] | 0.14 nM
16 | CC(C)n1c(=O)c(-c2ccc(NS(=O)(=O)C3CC4CCC3C4)c(F)c2)nc2cnc(N[C@H]3CC[C@H](N(C)C)CC3)nc21 (stereo partly drawn) [Example 281, N-(4-(2-(((1r, 4r)-4-(dimethylamino)cyclohexyl)amino)-8-isopropyl-7-oxo-7,8-dihydropteridin-6-yl)-2-fluorophenyl)bicyclo[2.2.1]heptane-2-sulfonamide] | 0.5 nM
17 | Cc1ccc(CS(=O)(=O)Nc2ccc(-c3nc4cnc(N[C@@H]5CNC[C@@H](F)C5)nc4n(C(C)C)c3=O)cc2F)c(C#N)c1 [Compound 166, 1-(2-Cyano-4-methylphenyl)-N-(2-fluoro-4-(2-(((3S,5S)-5-fluoropiperidin-3-yl)amino)-8-isopropyl-7-oxo-7,8-dihydropteridin-6-yl)phenyl)methanesulfonamide] | 0.09 nM
18 | CC(C)n1c(=O)c(-c2ccc(NS(=O)(=O)Cc3ccccc3)c(F)c2F)nc2cnc(N[C@@H]3CNC[C@@H](F)C3)nc21 [Compound 43, N-(2,3-Difluoro-4-(2-(((3S,5S)-5-fluoropiperidin-3-yl)amino)-8-isopropyl-7-oxo-7,8-dihydropteridin-6-yl)phenyl)-1-phenylmethanesulfonamide] | 0.71 nM
19 | CC(C)n1c(=O)c(-c2ccc(NS(=O)(=O)CCC(C)(F)F)c(F)c2)nc2cnc(N[C@@H]3CNC[C@H](CF)C3)nc21 [Compound 77, 3,3-Difluoro-N-[2-fluoro-4-[2-[[(3S,5R)-5-(fluoromethyl)-3-piperidyl]amino]-8-isopropyl-7-oxo-pteridin-6-yl]phenyl]butane-1-sulfonamide] | 0.8 nM
20 | CC(C)n1c(=O)c(-c2cc(F)c(NS(=O)(=O)CCC(F)(F)F)c(F)c2)nc2cnc(N[C@@H]3CC[C@@H](N(C)C)[C@H](F)C3)nc21 (stereo in doubt) [Compound 168B, N-(4-(2-((4-(Dimethylamino)-3-fluorocyclohexyl)amino)-8-isopropyl-7-oxo-7,8-dihydropteridin-6-yl)-2,6-difluorophenyl)-3,3,3-trifluoropropane-1-sulfonamide] | 0.23 nM
21 | CC(C)n1c(=O)c(-c2ccc(NS(=O)(=O)Cc3ccccc3)c(F)c2)nc2cnc(N[C@@H]3CNC[C@H](CF)C3)nc21 [Compound 65, N-(2-Fluoro-4-(2-(((3S,5R)-5-(fluoromethyl)piperidin-3-yl)amino)-8-isopropyl-7-oxo-7,8-dihydropteridin-6-yl)phenyl)-1-phenylmethanesulfonamide] | 0.24 nM
22 | Cc1nc(NS(=O)(=O)c2cccc(C#N)c2)ccc1-c1cc2cnc(N[C@H]3CC[C@H](N(C)C)CC3)nc2n(C(C)C)c1=O [Compound 142, 3-Cyano-N-(5-(2-(((1r,4r)-4-(dimethylamino)cyclohexyl)amino)-8-isopropyl-7-oxo-7,8-dihydropyrido[2,3-d]pyrimidin-6-yl)-6-methylpyridin-2-yl)benzenesulfonamide] | 0.69 nM
23 | CC(C)n1c(=O)c(-c2cc(F)c(NS(=O)(=O)Cc3ccc(F)cc3)c(F)c2F)cc2cnc(N[C@H]3CC[C@H](N(C)CCF)CC3)nc21 [Compound 141, 1-(4-Fluorophenyl)-N-(2,3,6-trifluoro-4-(2-(((1r,4r)-4-((2-fluoroethyl)(methyl)amino)cyclohexyl)amino)-8-isopropyl-7-oxo-7,8-dihydropyrido[2,3-d]pyrimidin-6-yl)phenyl)methanesulfonamide] | 0.18 nM
24 | CC(C)n1c(=O)c(-c2ccc(NS(=O)(=O)CCC(F)(F)F)c(F)c2)cc2cnc(N[C@H]3CCC[C@@H](N)C3)nc21 [Compound 108, N-(4-(2-(((1S,3R)-3-Aminocyclohexyl)amino)-8-isopropyl-7-oxo-7,8-dihydropyrido[2,3-d]pyrimidin-6-yl)-2-fluorophenyl)-3,3,3-trifluoropropane-1-sulfonamide hydrochloride] | 23 nM
